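Assay format: 96-well plates, 48-hour exposure. TGI marks complete inhibition of growth.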

What all share (experiment): growth of human tumour cells (NCI), 48 h
Assay [1] has as its system OVCAR-5 ovarian.
The test system of assay [2] is SNB-19 CNS.
Assay [3] concerns SF-268 CNS.
In assay [4] the test system is MDA-N.
Assay [5] concerns HOP-92 NSCLC.
Assay [6] deals with RPMI-8226 leukemia.
In assay [7] the test system is EKVX NSCLC.
Assay [8] deals with HOP-62 NSCLC.
Assay [9] concerns SN12C renal.
Assay [10] concerns UACC-62 melanoma.
Assay [11] has as its system A498 renal.

As to `Nc1ccc(C(=O)O)cc1`, the TGI in [1], in assay [2], in assay [3], in assay [4], in [5] and in assay [6] was more than 100 µM throughout. The TGI in assay [7], in assay [8] and in [9] was more than 100 µM in each case.

For `CCN(CCC#N)C(=O)Nc1ccccc1`, the TGI in [1], in assay [2], in [4], in assay [5], in [10] and in assay [6] was more than 100 µM throughout. Besides, the TGI in assay [7], in assay [8] and in [9] was more than 100 µM throughout.

For `Cc1cc(O)c(C(C)C)cc1C(=S)Nc1ccc(Cl)cc1`, the TGI turned out to be 28.3 µM in assay [1]; 29.7 µM in assay [11]; 19.7 µM in assay [3]; 23.7 µM in [4]; 22.3 µM in [10]; 33 µM in [6]. Also, the TGI was 25.3 µM in [7] and 32.9 µM in assay [8].

Turning to `COc1cccc(N(CN2C(=O)CCC2OC)C(C)=O)c1` (centres undefined), the TGI in [1], in assay [11], in assay [2], in assay [3], in assay [4] and in [5] was more than 100 µM throughout. In addition, the TGI in assay [10], in [6], in [8] and in [9] was more than 100 µM in each case.

As to `c1ccc(OCc2nnc(CCCCCCCCc3nnc(COc4ccccc4)o3)o2)cc1`, the TGI in assay [1], in assay [11], in assay [2], in [3], in [4] and in [5] was more than 100 µM throughout. In addition, the TGI in [7], in assay [8] and in assay [9] was more than 100 µM throughout.

Turning to `Cc1ccc2c(c1)Nc1ccccc1P2(=O)O`, the TGI in [1], in [11], in assay [2], in assay [3], in assay [4] and in assay [5] was more than 100 µM throughout. The TGI in assay [10], in [7], in [8] and in [9] was more than 100 µM in each case.

Regarding `COc1ccc(C2=Nc3c(nc(SC)[nH]c3=O)NC(c3ccccc3)C2)cc1` (centres undefined), the TGI in [1] is more than 100 µM; in assay [11] it was more than 100 µM; in [2], 65.4 µM; in assay [4], 35.4 µM; in assay [5], more than 100 µM; in assay [6] it was 62 µM. The TGI is 67.8 µM in assay [7], more than 100 µM in assay [8] and 47.2 µM in [9].

Turning to `ClC1=C(Cl)C2OC3C=CCC3OC2C(Cl)=C1Cl` (centres undefined), the TGI in assay [1] was more than 100 µM; in [11], more than 100 µM; in assay [3], more than 100 µM; in [4], more than 100 µM; in assay [5] it was more than 100 µM; in [6] it was 66.4 µM. The TGI in assay [7] and in assay [8] was more than 100 µM in each case.

As for `CNC(=O)C1OC(n2cnc3c(NCc4cccc(I)c4)nc(Cl)nc32)C(O)C1O` (centres undefined), the TGI in assay [1] came out at 27 µM; in assay [11], 33.7 µM; in assay [2], 24.9 µM; in assay [3], 23.5 µM; in assay [4], 55.4 µM; in [10] it was 24 µM. Further, the TGI in [6] was more than 100 µM; in assay [7] it was 31.5 µM; in [8], 25.2 µM; in assay [9], 41 µM.

Consider `CC1=NN2CCC(=O)N=C2S1`, for which the TGI in assay [1], in assay [2], in [3], in assay [4], in [5] and in [10] was more than 100 µM throughout. Besides, the TGI in assay [6], in assay [7], in assay [8] and in assay [9] was more than 100 µM in each case.

For `Cc1ccc(C(=O)N/N=C(\N=Nc2ccccc2C(=O)O)c2ccc(N(C)C)cc2)cc1`, the TGI was more than 100 µM in [1]; more than 100 µM in [2]; more than 100 µM in [3]; 57.7 µM in assay [4]; more than 100 µM in assay [5]; more than 100 µM in [6]. Besides, the TGI in [7] and in assay [9] was more than 100 µM throughout.

Consider `CCOC(=O)Cc1cc(=O)[nH]c(-n2[nH]c(C)c(CCO)c2=O)n1`, for which the TGI in assay [1], in [11], in assay [2], in assay [3], in assay [4] and in [10] was more than 100 µM each time. The TGI in assay [6], in [7], in assay [8] and in assay [9] was more than 100 µM each time.

As to `N#Cc1c(N2CCCC2)nsc1Nc1ccccc1`, the TGI in assay [1], in assay [11], in assay [2], in assay [3], in assay [4] and in [5] was more than 100 µM throughout. Besides, the TGI in assay [6], in [7] and in [9] was more than 100 µM each time.

For `COc1ccc(/C=C2\OC(=O)C(Cl)=C2c2ccc(OC)c(Cl)c2)cc1`, the TGI was 90.5 µM in [1]; 39.1 µM in [11]; more than 100 µM in [2]; 44.3 µM in assay [3]; 47.1 µM in assay [4]; 46.1 µM in assay [5]. Further, the TGI in [10] stood at 80 µM; in assay [6], 81.8 µM; in [7], 51.8 µM; in assay [8], 35.7 µM.

For `Cn1c2ccccc2c2c3c(c4c5ccccc5n(C)c4c21)C(=O)N(c1ccccc1)C3=O`, the TGI in [1], in assay [11], in assay [2], in [4], in assay [5] and in assay [10] was more than 100 µM in each case. The TGI in [6], in assay [7], in [8] and in assay [9] was more than 100 µM throughout.

Values taken from PubChem BioAssay (NCI).
